Laboratory results reported in patent publication US6559185B2, “Nitromethyl ketone compounds having aldose reduction inhibiting properties and methods for their use” (Merck Patent GmbH, priority 1997, dated 2003).
pIC50: −log10 of the molar value.

Key:
aldose reductase = target: T1, aldose reductase (Rattus norvegicus, UniProt P07943); assay: Study in vitro: inhibition of aldose reductase; assay type: biochemical; conditions: enzyme from male Wistar rat crystalline lenses; L-glyceraldehyde, NADPH disappearance at 340 nm
T1 construct: The aldose reductase used is obtained from male Wistar rat crystalline lenses; from tissue; host or cells: male Wistar rat crystalline lenses
Procedure: 1) Study in Vitro: Inhibition of Aldose Reductase
The aldose reductase used is obtained from male Wistar rat crystalline lenses according to a modification of the method of S. HAYMAN et al. (Journal of Biological Chemistry 240, p., 877, 1965). The enzymatic extract is diluted in a phosphate buffer in the presence of NADPH and various concentrations of the test products. The reaction is initiated, with L-glyceraldehyde and the reaction rate is measured by monitoring the disappearance of NADPH by spectrophotometry at 340 nm. The reaction rate is calculated for each product concentration and then the concentration necessary for a 50% reduction in the reaction rate (IC50) is evaluated by linear interpolation.

[1] = system: sorbitol level in the sciatic nerves; assay: Study in vivo: reduction of sorbitol accumulation in sciatic nerves of streptozotocin-diabetic rats; conditions: 10 mg/kg/d oral, 4, 30 and 52 h after streptozotocin (60 mg/kg i.v.); sciatic nerve sorbitol 18 h after last dose; diabetic male Wistar rats
Procedure: 2) Study in Vivo: Reduction of Sorbitol Accumulation
200 to 250 g male Wistar rats are made diabetic by intravenous injection of streptozotocin (60 mg/kg). They then receive an oral treatment of the test products, in the form of a suspension, 4 hours, 30 hours and 52 hours after the injection of streptozotocin. Eighteen hours after the last oral treatment, the rats are stunned and decapitated and then their sciatic nerves are removed. After extraction, the sorbitol level in the nerves is measured according to the enzymatic method described by H. U. BERGMEYER (Methods of enzymatic analysis. H. U. BERGMEYER ed., Academic Press New York 3, p. 1323, 1974).
The percentage protection is calculated for each product relative to the batch of diabetic animals taking into account the sorbitol level in the sciatic nerves of nondiabetic rats.

Row | Compound | melting point [°C] | pIC50 (aldose reductase) | Protection against increase in sorbitol after administration 10 mg/kg/d (%) [1] [%]
1 | N#Cc1ccccc1C(=O)C[N+](=O)[O-] | 147 to 149 | – | –
2 | CCc1ccccc1C(=O)C[N+](=O)[O-] | 62 to 63 | – | –
3 | O=C(C[N+](=O)[O-])c1ccccc1C(F)(F)F | 55 to 57 | – | –
4 | CCOc1ccccc1C(=O)C[N+](=O)[O-] | 145 to 148 | – | –
5 | CC(C)Oc1ccccc1C(=O)C[N+](=O)[O-] | 78 to 80 | – | –
6 | O=C(C[N+](=O)[O-])c1ccccc1OC(F)(F)F [Example 1, Nitromethyl 2-Trifluoromethoxyphenyl Ketone] | – | 7.39 | 70
7 | CCCCCC(=O)Nc1ccc(C(=O)C[N+](=O)[O-])c(Cl)c1 [Example 20, N-[3-chloro-4-nitromethylcarbonylphenyl]hexaneamide] | 60 to 63 | – | –
8 | CC(C(=O)Nc1ccc(C(=O)C[N+](=O)[O-])c(Cl)c1)c1ccccc1 (stereo not drawn) [Example 23, N-[3-Chloro-4-nitromethylcarbonylphenyl]-2-phenylpropaneamide] | 136 to 137 | 8.15 | 40
9 | O=C(Cc1ccccc1)Nc1ccc(C(=O)C[N+](=O)[O-])c(Cl)c1 [Example 24, N-[3-Chloro-4-nitromethylcarbonylphenyl]phenylacetamide] | 121 to 124 | 8.15 | 45
10 | O=C(Cc1ccccc1Cl)Nc1ccc(C(=O)C[N+](=O)[O-])c(Cl)c1 [Example 28, 2-Chloro-N-[3-chloro-4-nitromethylcarbonylphenyl]phenylacetamide] | – | 8.15 | 58
11 | O=C(Cc1ccccc1C(F)(F)F)Nc1ccc(C(=O)C[N+](=O)[O-])c(Cl)c1 [Example 30, N-[3-Chloro-4-nitromethylcarbonylphenyl]-2-trifluoromethylphenylacetamide] | 160 to 162 | 8.15 | 61
12 | CC(=O)Nc1cccc(C(=O)C[N+](=O)[O-])c1Cl [Example 34, N-[2-Chloro-3-nitromethylcarbonylphenyl]acetamide] | 140 to 142 | – | –
13 | O=C(C[N+](=O)[O-])c1cc(NS(=O)(=O)c2ccccc2)ccc1Cl [Example 38, N-[4-Chloro-3-nitromethylcarbonylphenyl]benzenesulfonamide] | 152 to 154 | – | –
14 | Cc1ccccc1CC(=O)Nc1ccc(C(=O)C[N+](=O)[O-])c(Cl)c1 [Example 43, N-[3-Chloro-4-nitromethylcarbonylphenyl]-2-methylphenylacetamide] | – | 8.15 | 70
15 | Cc1ccccc1CC(=O)Nc1ccc(C(=O)C[N+](=O)[O-])c(C)c1 [Example 59, N-[3-Methyl-4-nitromethylcarbonylphenyl]-2-methylphenylacetamide] | – | 8.22 | 52
16 | Cc1ccccc1CC(=O)Nc1ccc(C(=O)C[N+](=O)[O-])cc1Br [Example 60, N-[2-Bromo-4-nitromethylcarbonylphenyl]-2-methylphenylacetamide] | 125 to 127 | – | –
17 | O=C(C[N+](=O)[O-])c1ccc(Sc2ccccc2)cc1Cl [Example 64, Nitromethyl 2-Chloro-4-phenylthiophenyl Ketone] | 77 to 78 | – | –
